Measurements reported in patent US20240415804A1, “METHOD OF TREATING PANCREATIC CANCER” (University of South Florida, priority 2022, published 2024).

Experiments:
[1] = system: CD8+ T cells (CD3+CD8+CD4−); test: Flow cytometry of intra-tumoral CD8+ T cells and CD40L in KC-HPC mice; assay type: in vivo, mouse; conditions: API-treated vs vehicle-treated KC-HPC mice
Experimental: The inventors then assessed the expression of CD40 (a T cell co-stimulation marker) on M1 TAM (gated as MHC-II^+ and CD206) within the tumor from KC-HPC vs. KC-HPC-API mice. […] The femur and tibia were cut at the pelvic-hip joint and muscle was removed. The femurs and tibias were cut at the ends and flushed with a 30-gauge needle and 10 cc syringe filled with completed RPMI media until bone was white onto a petri dish. Pelleted bone marrow (BM) cells were treated with Red Blood Cell (RBC) lysis buffer (eBioscience, Waltham, MA, USA), according to the manufacturer's instructions, and then filtered through a […] nylon mesh cell strainer in 1×PBS. All pancreatic tumors were manually cut into ˜1-2 mm^3 fragments with a sterile razor blade and then enzymatically digested with Collagenase, type IV (Sigma-Aldrich), DNase, type IV (Sigma-Aldrich) and Hyaluronidase, Type V (Sigma-Aldrich) in Hank's Balanced Salt Solution for 1 h, spun down and washed as described in previous studies^61. Digested pancreatic tumor samples were treated with RBC lysis buffer and then filtered through a […] nylon mesh cell strainer in 1×PBS. Bone marrow and digested pancreatic tumor single cell suspensions were counted with a hemocytometer and then resuspended in 3% FBS/PBS. BM and digested pancreatic tumor cells (1×10^6) were Fc Blocked (anti-mouse CD16/CD32) and then surface stained for 30 min on ice protected from light with fluorescent anti-mouse antibodies including, CD11b-APC, Ly6C-PE/Cy7, Ly6G-PerCP, F4/80-BV650, MHC—II-BV605, CD206-FITC and CD40-PE/Cy5 along with isotype control antibodies (Biolegend, San Diego, CA, USA) to detect MDSC and macrophage subsets. Digested pancreatic tumor cells (1×10^6) were also Fc Blocked and then surface stained with fluorescent anti-mouse antibodies including CD3-FITC, CD8-PercP/Cy5.5, CD4-APC/Cy7, and CD40L-APC along with isotype control antibodies (Biolegend) to detect CD8^+ T cells. Subsequently, all samples were fixed with 2% paraformaldehyde for 15 min on ice protected from light. […]

[2] = system: CD8+ T cells and MHC-II+ cells; test: AKOYA-CODEX imaging of tumor sections of KC-HPC mice; assay type: in vivo, mouse
Source text: Next, the inventors examined the expression and infiltration of CD8^+ T cells and MHC-II^+ cells in the tumor sections of KC-HPC treated with vehicle or API and using AKOYA-CODEX which provides spatial capture of location and phenotype for multiple immune cells in the tumor. […] The inventors then observed, via 2D tSNE, increased CD8^+ T cell expression partially located within the tumor plots for the tumors of KC-HPC-API mice compared with vehicle treated KC-HPC mice (FIG. 15B). The poly-1-lysine coated coverslips containing 5-μm of Fresh Frozen (FF) tissue sections were stored at […] until use. At the staining time, FF tissue sections were baked for 30 min to 1 h at 55° C. According to Akoya Biosciences protocol, the FF tissues were dewaxed, deparaffinized in xylene then rehydrated in descending ethanol concentrations (100% twice, 90%, 70%, 50%, and 30%, respectively) and washed in ddH2O twice, each step for 5 min. Heat-induced epitope retrieval with antigen retrieval solution, pH 6, was performed using the pressure cooker at high-pressure protocol ([…]) for 20 min. After cooling at room temperature (RT) for 30 min to 1 h, the coverslips were washed in ddH2O twice for 2 min. […] The processed data were analyzed using the CODEX-MAV plugin in Image J. Then, nuclei segmentation was performed, followed by gating and clustering of the CD8+ T cells populations. […]

For `O=c1cc(-c2ccc(O)cc2)oc2cc(O)cc(O)c12` [API, 40,5,7-Trihydroxyflavone, 5,7-Dihydroxy-2-(4-hydroxyphenyl)-4-benzopyrone], the “CD40L expression on intra-tumoral CD8+ T cells” value [1] was “no significant changes”, the “intra-tumoral CD8+ T cells (flow cytometric analysis)” value [1] was “significant increase” and the “intra-tumoral CD8+ T cells absolute cell numbers” value [1] was “significant increase”. For the same compound, the “MHC-II+ cells in tumor sections (2D UMAP)” value ([2]; API treated KC-HPC mice, non-detectable in KC-HPC mice) was “increase” and the “CD8+ T cell expression in tumor sections (2D tSNE)” value ([2]; KC-HPC-API vs vehicle treated KC-HPC mice) was “increased”.
